Reference: patent US20260092061A1, “COMPOUNDS FOR TARGETED PROTEIN DEGRADATION” (Amphista Therapeutics Limited, priority 2022, published 2026)
Like-named read-outs stand apart in the source and are kept apart here.

Biological target: T1, BRD9 (Homo sapiens, UniProt Q9H8M2)
T1 sequence (Q9H8M2 1-597): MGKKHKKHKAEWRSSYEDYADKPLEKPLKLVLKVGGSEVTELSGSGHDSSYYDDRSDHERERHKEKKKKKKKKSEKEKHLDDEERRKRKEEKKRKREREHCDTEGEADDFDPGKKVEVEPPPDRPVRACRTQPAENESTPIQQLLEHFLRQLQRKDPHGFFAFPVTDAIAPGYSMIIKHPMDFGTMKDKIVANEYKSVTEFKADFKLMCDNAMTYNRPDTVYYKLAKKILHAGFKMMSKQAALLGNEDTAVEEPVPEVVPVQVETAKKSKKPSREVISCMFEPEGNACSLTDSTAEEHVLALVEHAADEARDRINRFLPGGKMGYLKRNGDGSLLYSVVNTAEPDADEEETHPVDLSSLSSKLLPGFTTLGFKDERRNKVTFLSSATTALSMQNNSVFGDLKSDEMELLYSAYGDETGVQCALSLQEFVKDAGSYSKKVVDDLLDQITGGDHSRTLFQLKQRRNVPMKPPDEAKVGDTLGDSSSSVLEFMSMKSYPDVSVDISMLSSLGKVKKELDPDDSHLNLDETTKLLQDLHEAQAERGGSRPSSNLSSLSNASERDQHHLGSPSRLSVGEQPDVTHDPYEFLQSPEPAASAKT
Experiment: Degradation of BRD9 (IF), immunofluorescence in MV4-11 cells, 24 hours (Assay Protocol 2)
Type: cell-based
Set-up: A suspension of MV4-11 cells (ATCC CRL-9591) was prepared; host or cells: MV4-11
Settings: BRD9 degradation
Procedure: Assay Protocol 2—Degradation of BRD9 (IF)
A suspension of MV4-11 cells (ATCC CRL-9591) was prepared in phenol red-free assay media (IMDM Thermo Scientific 21056023+10% FBS ATCC 302025) and cells were seeded at 20,000 cells per well (45 μL) in sterile black poly-d-lysine coated 384 well plates (Greiner 781948). Compounds were prepared at 1000× final concentration in DMSO, diluted 1:100 in assay media, and 5 μL compound was added to each well of the cell plate. Cells were incubated for 24 hours at 37° C. with 5% CO2. All the following incubations for immunofluorescence staining were at room temperature. 15 μL of 16% PFA was added to each well (3.7% final concentration) and the cells were fixed for 15 min then washed twice with DPBS. Cells were permeabilised with 0.1% Triton X-100 for 10 min, Triton X-100 was removed, then blocked with 1% BSA in DPBS for 1 hour. Cells were stained with 25 μL anti-BRD9 E4Q3F antibody (CST 48306) diluted 1:25600 in 1% BSA in DPBS for 2-3 hours. Wels were washed twice with DPBS then incubated with 25 μL of 1% BSA containing a 1:1000 dilution of Anti-rabbit Alexa Fluor™ 647 secondary antibody (Thero Scientific A21244) and 1 μg/mL Hoechst nuclear counter stain (Abcam ab228551) for 1 hour. Wells were washed twice with DPBS prior to imaging on a Perkin Elmer Operetta CLS with 10× air lens. Images were processed using Harmony High-Content Imaging and Analysis Software (Perkin Elmer) and the mean contrast ratio of Alexa Fluor™ 647 in central nuclei was used to quantify BRD9 protein levels. Data was further analysed using Dotmatics software and % BRD9 remaining was calculated by normalisation to average data from high and low control wells (cells treated with DMSO or 100 nM CFT-8634 respectively).

[1] = Assay protocol 2, read-out: DC50
[2] = MV4-11, Assay protocol 2, read-out: Dmax

| SMILES | DC50 [1] [nM] | Dmax [2] [%] | Dmax (MV4-11, Table 4, determined according to Assay Protocol 2, read-out: Dmax^2) [%] | DC50 (Table 4, determined according to Assay Protocol 2, read-out: DC50^2) [nM] |
| --- | --- | --- | --- | --- |
| COc1cc(-c2cn(C)c(=O)c(C)c2C)cc(OC)c1CN1CCN(Cc2cccc3c2CCN(C(=O)C(C#N)=CC24CC(OC)(C2)C4)C3C)C2(CC2)C1 (mixture of isomers) [Compound B191, (E/Z)-2-(5-((7-(2,6-dimethoxy-4-(1,4,5-trimethyl-6-oxo-1,6-dihydropyridin-3-yl)benzyl)-4,7-diazaspiro[2.5]octan-4-yl)methyl)-1-methyl-1,2,3,4-tetrahydroisoquinoline-2-carbonyl)-3-(3-methoxybicyclo[1.1.1]pentan-1-yl)acrylonitrile] | < 1.25 | > 75 | – | – |
| COc1cc(-c2cn(C)c(=O)c(C)c2C)cc(OC)c1CN1CCN(CCc2cccc3c2CCN(C(=O)/C(C#N)=C/C(C)(C)C)C3C)C2(CC2)C1 (mixture of isomers) [Compound B154] | 10 to 25 | 40 to 70 | – | – |
| COc1ccc(F)c(/C=C(\C#N)C(=O)N2CCc3c(CN4CCN(Cc5c(OC)cc(-c6cn(C)c(=O)c(C)c6C)cc5OC)CC4)cccc3C2C)c1 (mixture of isomers) [Compound B93, (E/Z)-2-(5-((4-(2,6-dimethoxy-4-(1,4,5-trimethyl-6-oxo-1,6-dihydropyridin-3-yl)benzyl)piperazin-1-yl)methyl)-1-methyl-1,2,3,4-tetrahydroisoquinoline-2-carbonyl)-3-(2-fluoro-5-methoxyphenyl)acrylonitrile] | 1.25 to 10 | 40 to 70 | – | – |
| COc1cc(-c2cn(C)c(=O)c(C)c2C)cc(OC)c1CN1CCN(Cc2cccc3c2CCN(C(=O)/C(C#N)=C/C2(C(F)(F)F)CC2)C3C)C2(CC2)C1 (mixture of isomers) [Compound B153, (E/Z)-2-[5-[[7-[[2,6-dimethoxy-4-(1,4,5-trimethyl-6-oxo-3-pyridyl)phenyl]methyl]-4,7-diazaspiro[2.5]octan-4-yl]methyl]-1-methyl-3,4-dihydro-1H-isoquinoline-2-carbonyl]-3-[1-(trifluoromethyl)cyclopropyl]prop-2-enenitrile] | < 1.25 | > 75 | – | – |

More lines, now with the values ahead:

| DC50 [1] [nM] | Dmax [2] [%] | Dmax (MV4-11, Table 4, determined according to Assay Protocol 2, read-out: Dmax^2) [%] | DC50 (Table 4, determined according to Assay Protocol 2, read-out: DC50^2) [nM] | SMILES |
| --- | --- | --- | --- | --- |
| 1.25 to 10 | > 75 | – | – | COc1cc(-c2cn(C)c(=O)c(C)c2C)cc(OC)c1CN1CCN(Cc2cccc3c2CCN(C(=O)/C(C#N)=C/C(C)(C)CF)C3C(C)C)CC12CC2 (mixture of isomers) [Compound C25, (E/Z)-2-(5-((4-(2,6-dimethoxy-4-(1,4,5-trimethyl-6-oxo-1,6-dihydropyridin-3-yl)benzyl)-4,7-diazaspiro[2.5]octan-7-yl)methyl)-1-isopropyl-1,2,3,4-tetrahydroisoquinoline-2-carbonyl)-5-fluoro-4,4-dimethylpent-2-enenitrile] |
| – | – | > 70 | > 200 | COc1cc(-c2cn(C)c(=O)c(C)c2C)cc(OC)c1CN1CCC2(CC1)CCN(C(=O)/C(C#N)=C/c1cccc(Br)n1)CC2 [BRD9r, (E/Z)-3-(6-bromopyridin-2-yl)-2-(9-(2,6-dimethoxy-4-(1,4,5-trimethyl-6-oxo-1,6-dihydropyridin-3-yl)benzyl)-3,9-diazaspiro[5.5]undecane-3-carbonyl)acrylonitrile] |
| < 1.25 | > 75 | – | – | COc1cc(-c2cn(C)c(=O)c(C)c2C)cc(OC)c1CN1CCN(Cc2cccc3c2CCN(C(=O)/C(C#N)=C/C(C)(C)C)[C@H]3C2CC2)C2(CC2)C1 (single isomer, unassigned) [Compound C99, (E/Z)-2-(1-cyclopropyl-5-((7-(2,6-dimethoxy-4-(1,4,5-trimethyl-6-oxo-1,6-dihydropyridin-3-yl)benzyl)-4,7-diazaspiro[2.5]octan-4-yl)methyl)-1,2,3,4-tetrahydroisoquinoline-2-carbonyl)-4,4-dimethylpent-2-enenitrile] |
